Test results reported in paper PMC8836234, “Salicylic Acid Is Required for Broad-Spectrum Disease Resistance in Rice” (International Journal of Molecular Sciences, 2022).
Numbering of substitutions follows the chain as printed. One block for each molecule: values may come before it.

Tests used:
OsSAH2 [1] = target: T1, OsSAH2 (Oryza sativa, UniProt B9FC47, Y127F); assay: LC-MS/MS product formation relative to wild type; format: biochemical; settings: 2-oxoglutarate, FeSO4, phosphate pH 6.8, 40 °C; 2,3- and 2,5-DHBA products
T1 construct: gene Os04g0581000; recombinant from E. coli BL21 (DE3), modified pGEX vector (GST purification), 3 x Myc at C-terminus; wild type has Y127, M282, A285; gene on chromosome 4, tail-to-tail with OsSAH3
T1 sequence (B9FC47 1-340 Y127F): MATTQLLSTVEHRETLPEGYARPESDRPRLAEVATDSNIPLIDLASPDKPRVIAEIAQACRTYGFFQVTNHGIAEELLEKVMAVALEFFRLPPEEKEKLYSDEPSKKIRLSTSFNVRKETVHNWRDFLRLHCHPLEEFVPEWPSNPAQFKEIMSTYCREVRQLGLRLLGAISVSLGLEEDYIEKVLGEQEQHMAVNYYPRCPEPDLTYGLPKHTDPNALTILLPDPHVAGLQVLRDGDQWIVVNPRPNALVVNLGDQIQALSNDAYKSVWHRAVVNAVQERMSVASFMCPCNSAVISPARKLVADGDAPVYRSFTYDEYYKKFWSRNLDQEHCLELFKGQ

DMR6 = target: T2, DMR6 (Arabidopsis thaliana, UniProt Q9FLV0); assay: LC-MS/MS product formation relative to wild type; format: biochemical; settings: 2-oxoglutarate, FeSO4, phosphate pH 6.8, 40 °C; 2,3- and 2,5-DHBA products
T2 construct: recombinant from E. coli BL21 (DE3), modified pGEX vector (GST purification), 3 x Myc at C-terminus; wild type has Y126, A283
T2 sequence (Q9FLV0 1-341): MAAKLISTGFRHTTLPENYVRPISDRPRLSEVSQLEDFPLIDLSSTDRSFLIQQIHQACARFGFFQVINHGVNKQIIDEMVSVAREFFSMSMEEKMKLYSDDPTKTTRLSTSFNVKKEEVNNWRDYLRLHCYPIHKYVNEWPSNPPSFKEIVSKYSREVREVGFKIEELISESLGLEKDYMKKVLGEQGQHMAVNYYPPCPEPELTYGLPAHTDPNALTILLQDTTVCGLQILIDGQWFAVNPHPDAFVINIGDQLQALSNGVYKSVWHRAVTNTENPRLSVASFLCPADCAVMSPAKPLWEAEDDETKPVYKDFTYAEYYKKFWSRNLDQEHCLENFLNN

OsSAH4 = target: T3, OsSAH4 (Oryza sativa, UniProt Q8W2X5); assay: LC-MS/MS of […],5-DHBA formation, substrate inhibition fit; format: biochemical; settings: substrate inhibition constant, second site; 5-hydroxylation (2,5-DHBA product); 1 mM 2-oxoglutarate, 0.4 mM FeSO4, phosphate pH 6.8, 40 °C
T3 construct: gene F3H-2; recombinant from E. coli BL21 (DE3), modified pGEX vector (GST purification), 3 x Myc at C-terminus
T3 sequence (Q8W2X5 1-342): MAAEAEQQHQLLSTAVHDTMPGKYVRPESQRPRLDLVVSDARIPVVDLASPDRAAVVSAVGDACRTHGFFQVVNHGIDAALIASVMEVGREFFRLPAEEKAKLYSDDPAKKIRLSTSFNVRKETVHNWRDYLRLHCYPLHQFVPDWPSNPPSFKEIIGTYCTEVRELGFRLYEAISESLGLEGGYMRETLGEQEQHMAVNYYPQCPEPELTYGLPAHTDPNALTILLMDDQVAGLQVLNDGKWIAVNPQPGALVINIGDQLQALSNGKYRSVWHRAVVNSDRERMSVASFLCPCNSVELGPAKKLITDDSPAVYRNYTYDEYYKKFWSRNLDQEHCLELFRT

OsSAH2 [2] = target: T4, OsSAH2 (Oryza sativa, UniProt B9FC47); assay: as above; format: biochemical; settings: substrate inhibition constant, second site; 5-hydroxylation (2,5-DHBA product); 1 mM 2-oxoglutarate, 0.4 mM FeSO4, phosphate pH 6.8, 40 °C
T4 construct: gene Os04g0581000; recombinant from E. coli BL21 (DE3), modified pGEX vector (GST purification), 3 x Myc at C-terminus; wild type has Y127, M282, A285; gene on chromosome 4, tail-to-tail with OsSAH3
T4 sequence (B9FC47 1-340): T1 sequence (B9FC47 1-340 Y127F) with F127Y

OsSAH1 = target: T5, OsSAH1 (Oryza sativa, UniProt Q10SI2); assay: as above; format: biochemical; settings: substrate inhibition constant, second site; 5-hydroxylation (2,5-DHBA product); 1 mM 2-oxoglutarate, 0.4 mM FeSO4, phosphate pH 6.8, 40 °C
T5 construct: gene Os03g0122300; recombinant from E. coli BL21 (DE3), modified pGEX vector (GST purification), 3 x Myc at C-terminus
T5 sequence (Q10SI2 1-342): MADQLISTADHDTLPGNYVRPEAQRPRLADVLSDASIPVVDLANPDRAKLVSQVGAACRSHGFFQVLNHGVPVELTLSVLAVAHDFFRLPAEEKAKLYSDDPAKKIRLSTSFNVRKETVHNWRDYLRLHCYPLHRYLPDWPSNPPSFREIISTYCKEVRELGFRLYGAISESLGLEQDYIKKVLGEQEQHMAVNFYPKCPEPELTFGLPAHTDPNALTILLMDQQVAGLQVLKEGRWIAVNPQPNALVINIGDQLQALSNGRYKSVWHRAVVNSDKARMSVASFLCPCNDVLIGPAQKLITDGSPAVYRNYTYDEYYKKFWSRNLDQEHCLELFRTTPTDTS

OsSAH3 = target: T6, OsSAH3 (Oryza sativa, UniProt Q7XUN0); assay: as above; format: biochemical; settings: substrate inhibition constant, second site; 5-hydroxylation (2,5-DHBA product); 1 mM 2-oxoglutarate, 0.4 mM FeSO4, phosphate pH 6.8, 40 °C
T6 construct: gene Os04g0581100; recombinant from E. coli BL21 (DE3), modified pGEX vector (GST purification), 3 x Myc at C-terminus; wild type has F136, R138, I289, P292; gene on chromosome 4, tail-to-tail with OsSAH2
T6 sequence (Q7XUN0 1-352): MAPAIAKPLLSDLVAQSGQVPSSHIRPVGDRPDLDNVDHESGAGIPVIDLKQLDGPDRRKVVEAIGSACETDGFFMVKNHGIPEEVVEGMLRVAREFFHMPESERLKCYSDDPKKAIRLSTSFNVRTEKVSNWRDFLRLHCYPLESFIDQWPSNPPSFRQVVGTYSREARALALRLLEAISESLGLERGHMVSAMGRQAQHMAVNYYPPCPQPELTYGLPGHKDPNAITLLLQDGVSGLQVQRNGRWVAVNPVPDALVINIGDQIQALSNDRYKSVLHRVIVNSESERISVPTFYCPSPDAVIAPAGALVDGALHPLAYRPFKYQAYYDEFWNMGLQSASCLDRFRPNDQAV

purified protein = substrate: O=C(O)c1ccccc1O; assay: purified protein; format: biochemical, Oryza sativa; settings: 5-hydroxylation (2,5-DHBA product), 1 mM 2-oxoglutarate, 0.4 mM FeSO4, ascorbate, phosphate pH 6.8, 40 °C

Ksi (OsSAH4): 26.52 ± 10.71 µM
Ksi (OsSAH2 [2]): 2.14 ± 1.86 µM
Ksi (OsSAH1): 27.13 ± 21.11 µM
Ksi (OsSAH3): 365.12 ± 30.58 µM
Molecule: O=C(O)c1ccccc1O [SA, 2-hydroxy benzoic acid]
relative enzyme activity (OsSAH2 [1]): OsSAH2^Y127F mutant showed a similar level of SA5H activity as that of OsSAH2
LC-MS/MS product formation relative to wild type (DMR6): The higher activity of DMR6 than that of OsSAH2 was also supported by these parameters

B1: OsSAH3 (Oryza sativa Japonica Group) (protein)
chain: T6 sequence (Q7XUN0 1-352)
notes: recombinant from E. coli BL21 (DE3), modified pGEX vector (GST purification), 3 x Myc at C-terminus; wild type has F136, R138, I289, P292; gene on chromosome 4, tail-to-tail with OsSAH2
Km (purified protein): 197.08 ± 19.42 µM
kcat (purified protein): 0.256 ± 0.0332 s⁻¹
kcat/Km (purified protein): 1290 M⁻¹ s⁻¹
